# Where two headings read alike, the source gives them in different places.
# How the values were obtained:
# PDK1 = biological target: T1, PDK1 (Homo sapiens, UniProt O15530); assay: Kinome profiler screen; assay type: biochemical; conditions: at 20,000 nM inhibitor; kinase activity remaining
# T1 construct: purchased Millipore KinaseProfiler
# NEK2 = biological target: T2, NEK2 (Homo sapiens, UniProt P51955); assay: Kinome profiler screen; assay type: biochemical; conditions: at 20,000 nM inhibitor; kinase activity remaining
# T2 construct: purchased Millipore KinaseProfiler
# TrkA = biological target: T3, TrkA (Homo sapiens, UniProt P04629); assay: Kinome profiler screen; assay type: biochemical
# T3 construct: purchased Millipore KinaseProfiler
# PIP4K2α = biological target: T4, PIP4K2α (Homo sapiens, UniProt P48426); assay: Kinome profiler screen; assay type: biochemical; conditions: at 20,000 nM inhibitor; kinase activity remaining
# T4 construct: purchased Millipore KinaseProfiler
# T4 sequence (P48426 whole entry): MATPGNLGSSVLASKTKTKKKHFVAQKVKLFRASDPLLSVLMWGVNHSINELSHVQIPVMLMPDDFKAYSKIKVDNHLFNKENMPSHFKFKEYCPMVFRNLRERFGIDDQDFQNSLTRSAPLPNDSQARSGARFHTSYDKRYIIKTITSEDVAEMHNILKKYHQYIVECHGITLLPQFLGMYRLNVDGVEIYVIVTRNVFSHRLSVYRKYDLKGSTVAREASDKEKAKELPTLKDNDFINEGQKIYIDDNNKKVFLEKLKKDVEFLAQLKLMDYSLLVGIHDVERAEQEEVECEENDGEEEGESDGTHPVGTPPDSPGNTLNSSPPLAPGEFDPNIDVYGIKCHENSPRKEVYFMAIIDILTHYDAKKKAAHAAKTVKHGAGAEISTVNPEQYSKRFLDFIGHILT
# EphA7 = biological target: T5, EphA7 (Homo sapiens, UniProt Q15375); assay: Kinome profiler screen; assay type: biochemical; conditions: for activity at 20 µM: at 20,000 nM inhibitor, kinase activity remaining
# T5 construct: purchased Millipore
# T5 sequence (Q15375 28-998): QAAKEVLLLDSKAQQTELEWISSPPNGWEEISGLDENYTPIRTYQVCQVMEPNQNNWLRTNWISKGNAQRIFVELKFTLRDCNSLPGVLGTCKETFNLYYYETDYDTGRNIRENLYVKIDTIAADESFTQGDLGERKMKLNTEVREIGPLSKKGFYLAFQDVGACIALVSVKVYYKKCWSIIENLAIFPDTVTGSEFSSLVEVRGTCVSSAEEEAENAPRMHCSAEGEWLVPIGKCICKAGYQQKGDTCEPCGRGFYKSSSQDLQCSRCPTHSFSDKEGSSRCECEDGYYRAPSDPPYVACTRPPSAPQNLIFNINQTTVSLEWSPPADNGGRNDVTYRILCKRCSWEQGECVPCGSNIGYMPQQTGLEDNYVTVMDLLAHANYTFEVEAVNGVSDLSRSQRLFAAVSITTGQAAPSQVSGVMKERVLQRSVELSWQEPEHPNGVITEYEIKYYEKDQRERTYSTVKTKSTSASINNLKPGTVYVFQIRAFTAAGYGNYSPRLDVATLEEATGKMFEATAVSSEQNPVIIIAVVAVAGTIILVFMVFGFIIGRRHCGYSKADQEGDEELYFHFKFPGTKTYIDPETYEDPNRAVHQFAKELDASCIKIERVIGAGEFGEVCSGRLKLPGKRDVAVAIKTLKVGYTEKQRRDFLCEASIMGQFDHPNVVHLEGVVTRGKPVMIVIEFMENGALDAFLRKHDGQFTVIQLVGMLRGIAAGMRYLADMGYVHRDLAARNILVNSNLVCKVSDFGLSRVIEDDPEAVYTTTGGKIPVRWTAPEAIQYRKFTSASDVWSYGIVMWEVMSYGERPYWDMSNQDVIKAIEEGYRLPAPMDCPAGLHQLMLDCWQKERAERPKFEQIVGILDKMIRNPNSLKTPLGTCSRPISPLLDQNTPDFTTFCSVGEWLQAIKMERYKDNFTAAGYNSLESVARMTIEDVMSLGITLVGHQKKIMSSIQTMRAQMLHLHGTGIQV
# TSSK2 = biological target: T6, TSSK2 (Homo sapiens, UniProt Q96PF2); assay: Kinome profiler screen; assay type: biochemical; conditions: at 20,000 nM inhibitor; kinase activity remaining
# T6 construct: purchased Millipore KinaseProfiler
# CK1γ2 = biological target: T7, CK1γ2 (Homo sapiens, UniProt P78368); assay: Kinome profiler screen; assay type: biochemical; conditions: at 20,000 nM inhibitor; kinase activity remaining
# T7 construct: purchased Millipore KinaseProfiler
# MAPKAP-K3 = biological target: T8, MAPKAP-K3 (Homo sapiens, UniProt Q16644); assay: Kinome profiler screen; assay type: biochemical; conditions: at 20,000 nM inhibitor; kinase activity remaining
# T8 construct: purchased Millipore KinaseProfiler
# Met(D1246H) = biological target: T9, Met(D1246H) (Homo sapiens, UniProt P08581, D1228H); assay: Kinome profiler screen; assay type: biochemical; conditions: at 20,000 nM inhibitor; kinase activity remaining
# T9 construct: purchased Millipore KinaseProfiler
# Pyk2 = biological target: T10, Pyk2 (Homo sapiens, UniProt Q14289); assay: Kinome profiler screen; assay type: biochemical; conditions: at 20,000 nM inhibitor; kinase activity remaining
# T10 construct: purchased Millipore KinaseProfiler
# [1] = biological target: T11, PI3 Kinase (p110α/p65α)(m) (Mus musculus, UniProt P42337); assay: Kinome profiler screen; assay type: biochemical; conditions: at 20,000 nM inhibitor; kinase activity remaining
# T11 construct: purchased Millipore KinaseProfiler
# Ros = biological target: T12, Ros (Homo sapiens, UniProt P08922); assay: Kinome profiler screen; assay type: biochemical; conditions: at 20,000 nM inhibitor; kinase activity remaining
# T12 construct: purchased Millipore KinaseProfiler
# SRPK2 = biological target: T13, SRPK2 (Homo sapiens, UniProt P78362); assay: Kinome profiler screen; assay type: biochemical; conditions: at 20,000 nM inhibitor; kinase activity remaining
# T13 construct: purchased Millipore KinaseProfiler
# PhKγ2 = biological target: T14, PhKγ2 (Homo sapiens, UniProt P15735); assay: Kinome profiler screen; assay type: biochemical; conditions: at 20,000 nM inhibitor; kinase activity remaining
# T14 construct: purchased Millipore KinaseProfiler
# FGFR2 = biological target: T15, FGFR2 (Homo sapiens, UniProt P21802); assay: Kinome profiler screen; assay type: biochemical; conditions: at 20,000 nM inhibitor; kinase activity remaining
# T15 construct: purchased Millipore KinaseProfiler
# T15 sequence (P21802 22-821): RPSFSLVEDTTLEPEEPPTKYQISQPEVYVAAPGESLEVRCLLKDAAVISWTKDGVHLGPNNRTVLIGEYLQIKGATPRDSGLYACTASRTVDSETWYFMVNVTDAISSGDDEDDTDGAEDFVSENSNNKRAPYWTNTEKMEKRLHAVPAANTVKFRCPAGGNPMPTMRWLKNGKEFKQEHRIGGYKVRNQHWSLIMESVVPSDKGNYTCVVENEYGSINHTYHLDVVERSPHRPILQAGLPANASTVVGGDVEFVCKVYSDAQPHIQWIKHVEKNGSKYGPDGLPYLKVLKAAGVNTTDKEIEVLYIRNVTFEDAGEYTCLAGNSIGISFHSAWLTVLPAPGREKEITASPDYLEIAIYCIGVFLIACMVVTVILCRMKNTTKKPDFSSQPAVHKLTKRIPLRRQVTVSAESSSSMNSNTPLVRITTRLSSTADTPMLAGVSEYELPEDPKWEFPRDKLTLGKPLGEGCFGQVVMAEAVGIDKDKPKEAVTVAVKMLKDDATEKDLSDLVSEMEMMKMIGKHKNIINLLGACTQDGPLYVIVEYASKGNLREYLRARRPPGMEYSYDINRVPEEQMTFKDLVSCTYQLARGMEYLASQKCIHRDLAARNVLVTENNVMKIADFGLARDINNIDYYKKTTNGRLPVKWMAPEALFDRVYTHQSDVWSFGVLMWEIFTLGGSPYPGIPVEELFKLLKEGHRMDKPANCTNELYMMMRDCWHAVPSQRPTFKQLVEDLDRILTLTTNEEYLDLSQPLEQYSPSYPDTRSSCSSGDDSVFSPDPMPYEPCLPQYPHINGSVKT
# PDGFRβ = biological target: T16, PDGFRβ (Homo sapiens, UniProt P09619); assay: Kinome profiler screen; assay type: biochemical; conditions: at 20,000 nM inhibitor; kinase activity remaining
# T16 construct: purchased Millipore KinaseProfiler
# MRCKα = biological target: T17, MRCKα (Homo sapiens, UniProt Q5VT25); assay: Kinome profiler screen; assay type: biochemical; conditions: at 20,000 nM inhibitor; kinase activity remaining
# T17 construct: purchased Millipore KinaseProfiler
# Abl (M351T) = biological target: T18, Abl (M351T) (Homo sapiens, UniProt P00519, M351T); assay: Kinome profiler screen; assay type: biochemical; conditions: at 20,000 nM inhibitor; kinase activity remaining
# T18 construct: purchased Millipore KinaseProfiler
# EGFR(L861Q) = biological target: T19, EGFR(L861Q) (Homo sapiens, UniProt P00533, L861Q); assay: Kinome profiler screen; assay type: biochemical; conditions: at 20,000 nM inhibitor; kinase activity remaining
# T19 construct: purchased Millipore KinaseProfiler
# EGFR = biological target: T20, EGFR (Homo sapiens, UniProt P00533); assay: Kinome profiler screen; assay type: biochemical; conditions: at 20,000 nM inhibitor; kinase activity remaining
# T20 construct: purchased Millipore KinaseProfiler
# RIPK2 = biological target: T21, RIPK2 (Homo sapiens, UniProt O43353); assay: Kinome profiler screen; assay type: biochemical; conditions: at 20,000 nM inhibitor; kinase activity remaining
# T21 construct: purchased Millipore KinaseProfiler
# [2] = system: contextual and cued learning; assay: Fear conditioning, Aβ42-infused mice; assay type: in vivo, C57BL/6J mice; conditions: for cued learning: 24 hrs after contextual learning, control test; for contextual fear memory deficit: Aβ42-infused mice
# mTOR/FKBP12 = biological target: T22, mTOR/FKBP12 (Homo sapiens, UniProt P42345); assay: Kinome profiler screen; assay type: biochemical; conditions: at 20,000 nM inhibitor; kinase activity remaining
# T22 construct: purchased Millipore KinaseProfiler
# CDK5/p35 = biological target: T23, CDK5/p35 (Homo sapiens, UniProt Q00535); assay: Kinome profiler screen; assay type: biochemical; conditions: at 20,000 nM inhibitor; kinase activity remaining
# T23 construct: purchased Millipore KinaseProfiler
# T23 sequence (Q00535 whole entry): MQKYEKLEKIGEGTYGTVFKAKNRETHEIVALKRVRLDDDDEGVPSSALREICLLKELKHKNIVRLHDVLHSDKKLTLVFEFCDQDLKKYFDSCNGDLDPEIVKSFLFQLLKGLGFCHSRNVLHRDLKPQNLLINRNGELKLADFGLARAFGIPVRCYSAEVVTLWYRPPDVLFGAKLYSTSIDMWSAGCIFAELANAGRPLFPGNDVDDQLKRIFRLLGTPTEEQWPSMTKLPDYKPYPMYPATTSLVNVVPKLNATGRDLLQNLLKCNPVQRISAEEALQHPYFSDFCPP
# T23 sequence (Q15078 whole entry partner): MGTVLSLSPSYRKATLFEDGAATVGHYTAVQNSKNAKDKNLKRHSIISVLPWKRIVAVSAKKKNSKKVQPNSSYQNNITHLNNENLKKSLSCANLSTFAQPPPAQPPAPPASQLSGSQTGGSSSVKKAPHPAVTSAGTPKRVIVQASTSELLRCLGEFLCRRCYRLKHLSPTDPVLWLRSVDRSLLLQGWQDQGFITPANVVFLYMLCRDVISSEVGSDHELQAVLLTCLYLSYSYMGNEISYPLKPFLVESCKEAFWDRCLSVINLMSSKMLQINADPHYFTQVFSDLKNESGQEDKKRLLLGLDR
# PKCβI = biological target: T24, PKCβI (Homo sapiens, UniProt P05771); assay: Kinome profiler screen; assay type: biochemical; conditions: at 20,000 nM inhibitor; kinase activity remaining
# T24 construct: purchased Millipore KinaseProfiler
# T24 sequence (P05771 whole entry): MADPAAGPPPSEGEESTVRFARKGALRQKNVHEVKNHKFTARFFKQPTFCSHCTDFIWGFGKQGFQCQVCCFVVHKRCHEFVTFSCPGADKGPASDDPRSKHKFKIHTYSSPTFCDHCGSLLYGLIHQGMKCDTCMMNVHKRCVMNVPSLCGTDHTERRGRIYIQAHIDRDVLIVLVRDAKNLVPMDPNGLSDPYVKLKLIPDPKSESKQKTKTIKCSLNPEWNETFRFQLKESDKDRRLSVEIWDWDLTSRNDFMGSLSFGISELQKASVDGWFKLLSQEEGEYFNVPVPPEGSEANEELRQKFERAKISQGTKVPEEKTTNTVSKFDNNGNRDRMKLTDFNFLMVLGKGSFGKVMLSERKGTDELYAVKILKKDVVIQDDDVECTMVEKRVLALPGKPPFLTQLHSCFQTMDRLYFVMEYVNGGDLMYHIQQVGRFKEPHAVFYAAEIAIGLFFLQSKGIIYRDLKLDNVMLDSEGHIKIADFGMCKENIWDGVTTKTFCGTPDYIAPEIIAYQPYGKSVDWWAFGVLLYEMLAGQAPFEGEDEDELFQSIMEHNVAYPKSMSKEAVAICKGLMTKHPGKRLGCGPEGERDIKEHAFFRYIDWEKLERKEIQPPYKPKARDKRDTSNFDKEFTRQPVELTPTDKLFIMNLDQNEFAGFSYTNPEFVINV
# EGFR(T790M) = biological target: T25, EGFR(T790M) (Homo sapiens, UniProt P00533, T790M); assay: Kinome profiler screen; assay type: biochemical; conditions: at 20,000 nM inhibitor; kinase activity remaining
# T25 construct: purchased Millipore KinaseProfiler
# LKB1 = biological target: T26, LKB1 (Homo sapiens, UniProt Q15831); assay: Kinome profiler screen; assay type: biochemical; conditions: at 20,000 nM inhibitor; kinase activity remaining
# T26 construct: purchased Millipore KinaseProfiler
# TAO1 = biological target: T27, TAO1 (Homo sapiens, UniProt Q7L7X3); assay: Kinome profiler screen; assay type: biochemical; conditions: at 20,000 nM inhibitor; kinase activity remaining
# T27 construct: purchased Millipore KinaseProfiler
# IKKβ = biological target: T28, IKKβ (Homo sapiens, UniProt O14920); assay: Kinome profiler screen; assay type: biochemical; conditions: at 20,000 nM inhibitor; kinase activity remaining
# T28 construct: purchased Millipore KinaseProfiler
# CaMKIV = biological target: T29, CaMKIV (Homo sapiens, UniProt Q16566); assay: Kinome profiler screen; assay type: biochemical; conditions: at 20,000 nM inhibitor; kinase activity remaining
# T29 construct: purchased Millipore KinaseProfiler
# [3] = Dose escalation adverse event screen (SHIRPA based); assay type: in vivo; conditions: highest dose at which no adverse events are observed in dose escalation studies, mice
# Description: Novel compounds were screened in vivo using a standard dose escalation screen in mice coupled with clinical observation and testing based on the SHIRPA mouse phenotype assay paradigm. To obtain insight into the potential for off-target activity with the largest known family of small molecule drug targets, G-protein coupled receptors (GPCRs), a cell-based functional screen of the final title compounds was done. The Millipore® GPCR Profiler screen employs the ChemiScreen GPCR stable cell line technology used for real-time calcium flux FLIPR assays on a panel of 158 GPCRs to detect both antagonists and agonists. The NCBI Entrez identifier for each GPCR is provided at the vendor site (www.millipore.com). Follow-up validation of any initial hits as being true positives or negatives was done as described above for protein kinases by testing the concentration dependence of any cellular effects. No validated hits were detected.
# IR = biological target: T30, IR (Homo sapiens, UniProt P06213); assay: Kinome profiler screen; assay type: biochemical; conditions: at 20,000 nM inhibitor; kinase activity remaining
# T30 construct: purchased Millipore KinaseProfiler
# PKBα = biological target: T31, PKBα (Homo sapiens, UniProt P31749); assay: Kinome profiler screen; assay type: biochemical; conditions: at 20,000 nM inhibitor; kinase activity remaining
# T31 construct: purchased Millipore KinaseProfiler
# Abl (H396P) = biological target: T32, Abl (H396P) (Homo sapiens, UniProt P00519, H396P); assay: Kinome profiler screen; assay type: biochemical; conditions: at 20,000 nM inhibitor; kinase activity remaining
# T32 construct: purchased Millipore KinaseProfiler
# Arg = biological target: T33, Arg (Homo sapiens, UniProt P42684); assay: Kinome profiler screen; assay type: biochemical; conditions: at 20,000 nM inhibitor; kinase activity remaining
# T33 construct: purchased Millipore KinaseProfiler
# T33 sequence (P42684 whole entry): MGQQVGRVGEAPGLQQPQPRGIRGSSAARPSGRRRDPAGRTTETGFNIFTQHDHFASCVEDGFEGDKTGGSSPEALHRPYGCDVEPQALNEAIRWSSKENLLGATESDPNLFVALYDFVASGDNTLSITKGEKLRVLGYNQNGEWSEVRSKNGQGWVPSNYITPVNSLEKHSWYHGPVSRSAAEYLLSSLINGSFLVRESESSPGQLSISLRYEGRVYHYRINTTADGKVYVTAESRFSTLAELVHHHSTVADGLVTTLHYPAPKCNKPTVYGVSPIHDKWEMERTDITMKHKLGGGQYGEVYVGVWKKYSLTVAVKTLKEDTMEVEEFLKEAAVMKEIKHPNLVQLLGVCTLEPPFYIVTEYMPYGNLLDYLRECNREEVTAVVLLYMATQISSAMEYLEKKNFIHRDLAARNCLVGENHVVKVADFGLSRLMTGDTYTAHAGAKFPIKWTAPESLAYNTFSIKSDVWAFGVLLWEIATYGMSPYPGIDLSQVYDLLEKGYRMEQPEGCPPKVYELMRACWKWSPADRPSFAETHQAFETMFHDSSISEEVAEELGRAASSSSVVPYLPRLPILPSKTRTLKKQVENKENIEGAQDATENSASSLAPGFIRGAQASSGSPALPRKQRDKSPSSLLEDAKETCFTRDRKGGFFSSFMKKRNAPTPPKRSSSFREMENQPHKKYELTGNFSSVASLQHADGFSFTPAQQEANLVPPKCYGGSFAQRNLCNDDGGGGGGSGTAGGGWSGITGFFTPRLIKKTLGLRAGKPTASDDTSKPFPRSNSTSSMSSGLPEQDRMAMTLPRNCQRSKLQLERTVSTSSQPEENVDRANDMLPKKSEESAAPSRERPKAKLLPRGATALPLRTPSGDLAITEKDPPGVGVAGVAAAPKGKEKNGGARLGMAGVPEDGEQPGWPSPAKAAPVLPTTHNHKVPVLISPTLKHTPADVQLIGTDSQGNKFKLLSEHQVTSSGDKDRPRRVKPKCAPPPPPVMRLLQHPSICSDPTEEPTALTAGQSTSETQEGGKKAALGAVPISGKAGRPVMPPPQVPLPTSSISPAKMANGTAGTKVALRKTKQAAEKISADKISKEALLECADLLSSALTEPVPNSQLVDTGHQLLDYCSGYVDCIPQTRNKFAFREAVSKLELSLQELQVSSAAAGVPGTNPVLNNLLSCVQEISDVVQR
# [4] = biological target: T34, PI3 Kinase (p110δ/p85α)(m) (Mus musculus, UniProt O35904); assay: Kinome profiler screen; assay type: biochemical; conditions: at 20,000 nM inhibitor; kinase activity remaining
# T34 construct: purchased Millipore KinaseProfiler
# TAK1 = biological target: T35, TAK1 (Homo sapiens, UniProt O43318); assay: Kinome profiler screen; assay type: biochemical; conditions: at 20,000 nM inhibitor; kinase activity remaining
# T35 construct: purchased Millipore KinaseProfiler
# T35 sequence (O43318 1-303 limits assumed): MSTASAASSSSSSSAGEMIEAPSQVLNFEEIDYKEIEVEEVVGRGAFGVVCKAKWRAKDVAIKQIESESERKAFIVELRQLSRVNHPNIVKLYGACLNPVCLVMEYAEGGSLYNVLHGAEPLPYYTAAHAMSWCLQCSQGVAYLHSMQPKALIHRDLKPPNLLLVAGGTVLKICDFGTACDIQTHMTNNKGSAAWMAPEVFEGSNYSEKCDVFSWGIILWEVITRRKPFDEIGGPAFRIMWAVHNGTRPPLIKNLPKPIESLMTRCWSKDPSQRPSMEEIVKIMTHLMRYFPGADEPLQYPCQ
# PKBβ = biological target: T36, PKBβ (Homo sapiens, UniProt P31751); assay: Kinome profiler screen; assay type: biochemical; conditions: at 20,000 nM inhibitor; kinase activity remaining
# T36 construct: purchased Millipore KinaseProfiler
smiles,measurement,setting,value
"CN(C)c1cc(-c2ccncc2)c(-c2ccc3ccccc3c2)nn1 [MW108, N, N-dimethyl-6-(naphthalen-2-yl)-5-(pyridin-4-yl)pyridazin-3-amine]",activity at 20 µM,PDK1,104%
same,activity at 20 µM,NEK2,96%
same,activity at 20 µM,TrkA,91%
same,activity at 20 µM,PIP4K2α,96%
same,IC50,EphA7,18.9 µM
same,activity at 20 µM,EphA7,35%
same,activity at 20 µM,TSSK2,101%
same,activity at 20 µM,CK1γ2,91%
same,activity at 20 µM,MAPKAP-K3,102%
same,activity at 20 µM,Met(D1246H),94%
same,activity at 20 µM,Pyk2,106%
same,activity at 20 µM,[1],101%
same,activity at 20 µM,Ros,87%
same,activity at 20 µM,SRPK2,95%
same,activity at 20 µM,PhKγ2,98%
same,activity at 20 µM,FGFR2,101%
same,activity at 20 µM,PDGFRβ,99%
same,activity at 20 µM,MRCKα,107%
same,activity at 20 µM,Abl (M351T),106%
same,activity at 20 µM,EGFR(L861Q),49%
same,activity at 20 µM,EGFR,79%
same,activity at 20 µM,RIPK2,57%
same,cued learning,[2],No difference was detected between groups
same,contextual fear memory deficit,[2],ameliorated the contextual fear memory deficit
same,activity at 20 µM,mTOR/FKBP12,100%
same,activity at 20 µM,CDK5/p35,99%
same,activity at 20 µM,PKCβI,92%
same,activity at 20 µM,EGFR(T790M),68%
same,activity at 20 µM,LKB1,102%
same,activity at 20 µM,TAO1,92%
same,activity at 20 µM,IKKβ,98%
same,activity at 20 µM,CaMKIV,100%
same,Dose Escalating Adverse Event Screen / Adverse Pharm Dose,[3],≥ 200 mg/kg
same,Dose Escalating Adverse Event Screen / Adverse Pharm Dose,[3]; listed as MW01-11-108SRM,> 200 mg/kg
same,activity at 20 µM,IR,100%
same,activity at 20 µM,PKBα,99%
same,activity at 20 µM,Abl (H396P),94%
same,activity at 20 µM,Arg,95%
same,activity at 20 µM,[4],100%
same,activity at 20 µM,TAK1,102%
same,activity at 20 µM,PKBβ,98%
"CN(C)c1cc(-c2ccncc2)c(-c2cccc3ccccc23)nn1 [MW181, N,N-dimethyl-6-(naphthalen-1-yl)-5-(pyridin-4-yl)pyridazin-3-amine]",activity at 20 µM,PDK1,105%
same,activity at 20 µM,NEK2,94%
same,activity at 20 µM,"TrkA; at 20,000 nM inhibitor, kinase activity remaining, read-out: % Activity",109%
same,activity at 20 µM,PIP4K2α,97%
same,activity at 20 µM,EphA7,77%
same,activity at 20 µM,TSSK2,107%
same,activity at 20 µM,CK1γ2,96%
same,activity at 20 µM,MAPKAP-K3,99%
same,activity at 20 µM,Met(D1246H),102%
same,activity at 20 µM,Pyk2,101%
same,activity at 20 µM,[1],100%
same,activity at 20 µM,Ros,110%
same,activity at 20 µM,SRPK2,109%
same,activity at 20 µM,PhKγ2,93%
same,activity at 20 µM,FGFR2,98%
same,activity at 20 µM,PDGFRβ,99%
same,activity at 20 µM,MRCKα,103%
same,activity at 20 µM,Abl (M351T),101%
same,activity at 20 µM,EGFR(L861Q),56%
same,activity at 20 µM,EGFR,103%
same,activity at 20 µM,RIPK2,84%
same,cued learning,[2],No difference was detected between groups
same,contextual fear memory deficit,[2],ameliorated the contextual fear memory deficit
same,activity at 20 µM,mTOR/FKBP12,96%
same,activity at 20 µM,CDK5/p35,95%
same,activity at 20 µM,PKCβI,104%
same,activity at 20 µM,EGFR(T790M),105%
same,activity at 20 µM,LKB1,100%
same,activity at 20 µM,TAO1,98%
same,activity at 20 µM,IKKβ,88%
same,activity at 20 µM,CaMKIV,105%
same,Dose Escalating Adverse Event Screen / Adverse Pharm Dose,[3],≥ 200 mg/kg
same,Dose Escalating Adverse Event Screen / Adverse Pharm Dose,[3]; listed as MW01-10-181SRM,> 200 mg/kg
same,activity at 20 µM,IR,112%
same,activity at 20 µM,PKBα,90%
same,activity at 20 µM,Abl (H396P),101%
same,activity at 20 µM,Arg,84%
same,activity at 20 µM,[4],101%
same,activity at 20 µM,TAK1,104%
same,activity at 20 µM,PKBβ,102%
